Consider 15 compounds from US12589156B2, “Benzimidazole and benzimidazolone based protac compounds for the targeted degradation of leucine rich repeat kinase 2 (LRRK2)” (Arvinas Operations, Inc., priority 2023, dated 2026).

As usually defined, the Dmax is the largest share of the target that was removed. Low values mean a partial loss of target, high ones a fuller loss of target. Usually DC50 stands for the concentration giving 50% degradation. Read a high DC50 as degradation only at high concentration.

The test has as its target T1, WT LRRK2 (Homo sapiens, UniProt Q5S007).
T1 construct: endogenous in cells; host or cells: HEK293 (endogenous LRRK2 gene knock-in tagged with HiBit; stably expressing CMV-driven firefly luciferase)
Put plainly: LRRK2 HiBit degradation assay (Nano-Glo Dual Luciferase) in HEK293 cells with HiBit-tagged endogenous LRRK2. The class given is cell-based. In short, it runs like this:
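HEK293 cells carrying endogenous C-terminally HiBit-tagged LRRK2 and stably expressing CMV-driven firefly luciferase were treated for 24 h at 37° C with an 11-point 1:3 series from a 1 μM final top concentration. Nano-Glo Dual Luciferase read LRRK2-HiBit against firefly signal. Alamar Blue gave viability, and signals were normalized to DMSO median before curve fitting.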
A general note: The HiBiT peptide binds its large partner to form an active luciferase.

Setting [1] is: HEK293, Table 2, maximal degradation, HiBit-tagged LRRK2 in HEK293 cells, 24 hours treatment.
[2] abbreviates: Table 2, HiBit-tagged LRRK2 in HEK293 cells, 24 hours treatment, starting concentration 1 μM.
The mark [3] stands for this setting: HEK293, Table 3, comparison with direct comparators, maximal degradation.
[4] abbreviates: Table 3, comparison with direct comparators, HiBit-tagged LRRK2 in HEK293 cells, 24 hours treatment.

Some results are limits rather than exact numbers.

T1 sequence (Q5S007 whole entry): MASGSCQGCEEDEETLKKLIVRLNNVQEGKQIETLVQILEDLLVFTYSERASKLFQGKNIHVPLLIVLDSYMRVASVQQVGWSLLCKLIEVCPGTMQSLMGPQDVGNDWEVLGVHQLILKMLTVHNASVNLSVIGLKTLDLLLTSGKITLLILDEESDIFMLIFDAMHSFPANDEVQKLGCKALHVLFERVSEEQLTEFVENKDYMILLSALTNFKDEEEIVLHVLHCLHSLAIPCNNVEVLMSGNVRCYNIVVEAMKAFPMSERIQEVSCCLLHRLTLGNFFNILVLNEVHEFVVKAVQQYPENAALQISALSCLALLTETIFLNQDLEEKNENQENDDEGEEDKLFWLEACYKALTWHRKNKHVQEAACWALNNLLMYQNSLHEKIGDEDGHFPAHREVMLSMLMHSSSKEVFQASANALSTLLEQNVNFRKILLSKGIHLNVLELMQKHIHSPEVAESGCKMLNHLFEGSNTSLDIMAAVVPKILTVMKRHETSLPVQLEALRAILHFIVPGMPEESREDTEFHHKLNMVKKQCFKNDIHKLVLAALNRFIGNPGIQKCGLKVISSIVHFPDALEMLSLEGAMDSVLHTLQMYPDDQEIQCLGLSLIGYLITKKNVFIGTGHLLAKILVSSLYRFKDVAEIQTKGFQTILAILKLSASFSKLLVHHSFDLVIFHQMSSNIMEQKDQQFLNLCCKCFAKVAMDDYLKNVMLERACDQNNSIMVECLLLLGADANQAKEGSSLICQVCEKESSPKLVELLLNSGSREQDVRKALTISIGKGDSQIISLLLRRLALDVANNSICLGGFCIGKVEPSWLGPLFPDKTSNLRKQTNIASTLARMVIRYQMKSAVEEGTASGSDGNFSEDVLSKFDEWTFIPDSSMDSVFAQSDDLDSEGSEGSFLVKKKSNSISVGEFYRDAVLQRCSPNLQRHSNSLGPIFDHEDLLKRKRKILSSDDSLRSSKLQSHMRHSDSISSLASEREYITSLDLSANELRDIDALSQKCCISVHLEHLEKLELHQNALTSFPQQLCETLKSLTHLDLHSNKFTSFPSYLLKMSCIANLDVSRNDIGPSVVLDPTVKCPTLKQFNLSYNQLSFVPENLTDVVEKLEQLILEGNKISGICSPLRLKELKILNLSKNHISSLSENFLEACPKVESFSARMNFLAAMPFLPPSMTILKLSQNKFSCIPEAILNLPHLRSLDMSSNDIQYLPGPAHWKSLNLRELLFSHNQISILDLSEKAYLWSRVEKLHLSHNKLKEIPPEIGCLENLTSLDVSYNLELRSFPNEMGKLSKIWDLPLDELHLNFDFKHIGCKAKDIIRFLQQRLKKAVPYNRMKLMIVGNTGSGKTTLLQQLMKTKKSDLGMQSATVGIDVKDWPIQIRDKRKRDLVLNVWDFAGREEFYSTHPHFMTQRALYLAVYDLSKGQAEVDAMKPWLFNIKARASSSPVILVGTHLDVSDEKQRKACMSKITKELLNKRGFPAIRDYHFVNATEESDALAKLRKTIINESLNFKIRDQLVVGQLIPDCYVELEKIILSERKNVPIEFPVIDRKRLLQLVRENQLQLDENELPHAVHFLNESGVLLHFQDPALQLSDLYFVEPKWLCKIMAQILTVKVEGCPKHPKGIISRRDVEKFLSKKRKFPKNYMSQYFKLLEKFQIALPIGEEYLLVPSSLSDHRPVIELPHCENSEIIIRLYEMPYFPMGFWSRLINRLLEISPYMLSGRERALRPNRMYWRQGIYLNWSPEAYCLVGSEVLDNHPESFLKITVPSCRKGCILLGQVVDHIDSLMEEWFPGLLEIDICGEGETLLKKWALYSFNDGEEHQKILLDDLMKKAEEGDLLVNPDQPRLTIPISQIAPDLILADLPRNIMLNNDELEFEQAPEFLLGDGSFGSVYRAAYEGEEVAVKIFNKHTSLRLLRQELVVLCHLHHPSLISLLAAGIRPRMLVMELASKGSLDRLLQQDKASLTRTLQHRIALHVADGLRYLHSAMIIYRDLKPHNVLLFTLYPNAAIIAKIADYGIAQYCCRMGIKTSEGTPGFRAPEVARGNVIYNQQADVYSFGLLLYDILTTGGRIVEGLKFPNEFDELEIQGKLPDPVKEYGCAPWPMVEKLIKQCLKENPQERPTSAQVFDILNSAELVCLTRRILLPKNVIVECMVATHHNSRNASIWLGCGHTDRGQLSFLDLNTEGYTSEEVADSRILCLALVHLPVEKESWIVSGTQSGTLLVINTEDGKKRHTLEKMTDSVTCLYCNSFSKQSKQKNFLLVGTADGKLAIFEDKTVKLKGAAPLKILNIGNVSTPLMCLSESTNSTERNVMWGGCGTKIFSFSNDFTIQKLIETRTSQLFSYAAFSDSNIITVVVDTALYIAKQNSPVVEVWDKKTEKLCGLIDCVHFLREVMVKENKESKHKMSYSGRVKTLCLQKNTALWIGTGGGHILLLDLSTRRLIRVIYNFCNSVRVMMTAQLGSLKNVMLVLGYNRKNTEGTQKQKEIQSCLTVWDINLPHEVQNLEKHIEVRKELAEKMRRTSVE

`CC(C)Oc1cc2c(-c3cc(N4CCN(C[C@H]5CC[C@H](OC6CCN(c7ccc8c(c7)n(C(C)C)c(=O)n8C7CCC(=O)NC7=O)CC6)CC5)CC4)ncn3)n[nH]c2cn1` (single isomer, unassigned) [Compound 59, rel-3-[2-oxo-3-(propan-2-yl)-5-(4-{[(1r,4r)-4-[(4-{6-[5-(propan-2-yloxy)-1H-pyrazolo[3,4-c]pyridin-3-yl]pyrimidin-4-yl}piperazin-1-yl)methyl]cyclohexyl]oxy}piperidin-1-yl)-2,3-dihydro-1H-1,3-benzodiazol-1-yl]piperidine-2,6-dione] had a Dmax under setting [1] of 41%. Besides, it took 0.74 nM to reach half-maximal degradation under setting [2] (DC50).

Consider `Cn1c(=O)n(C2CCC(=O)NC2=O)c2ccc(N3CCC(O[C@H]4CC[C@@H](CN5CCN(c6cc(-c7n[nH]c8cnc(OC9(C)CC9)cc78)ncn6)CC5)CC4)CC3)cc21` (some centres unmarked) [Compound 68, 3-[3-methyl-2-oxo-5-(4-{[(1s,4s)-4-[(4-{6-[5-(1-methylcyclopropoxy)-1H-pyrazolo[3,4-c]pyridin-3-yl]pyrimidin-4-yl}piperazin-1-yl)methyl]cyclohexyl]oxy}piperidin-1-yl)-2,3-dihydro-1H-1,3-benzodiazol-1-yl]piperidine-2,6-dione], for which the Dmax under setting [1] came to 35%. For the same compound, the 50% degradation concentration (DC50) under setting [2] is 1.2 nM.

On to `Cn1c(=O)n(C2CCC(=O)NC2=O)c2cccc(C#CCOC3CCN(CC4CCN(c5cc(-c6n[nH]c7ccc(OC8(C)CC8)cc67)ncn5)CC4)CC3)c21` (centres unmarked) [Compound 18, 3-{3-methyl-4-[3-({1-[(1-{6-[5-(1-methylcyclopropoxy)-1H-indazol-3-yl]pyrimidin-4-yl}piperidin-4-yl)methyl]piperidin-4-yl}oxy)prop-1-yn-1-yl]-2-oxo-2,3-dihydro-1H-1,3-benzodiazol-1-yl}piperidine-2,6-dione], for which the Dmax under setting [1] was 74%. Besides, the 50% degradation concentration (DC50) under setting [2] turned out to be 3.9 nM.

Take `CC1(Oc2ccc3[nH]nc(-c4cc(N5CCC(CN6CCN(CC7CCN(c8ccc9c(ncn9C9CCC(=O)NC9=O)c8F)CC7)CC6(C)C)CC5)ncn4)c3c2)CC1` (centres unmarked) [Compound 41, 3-{5-[4-({3,3-dimethyl-4-[(1-{6-[5-(1-methylcyclopropoxy)-1H-indazol-3-yl]pyrimidin-4-yl}piperidin-4-yl)methyl]piperazin-1-yl}methyl)piperidin-1-yl]-4-fluoro-1H-1,3-benzodiazol-1-yl}piperidine-2,6-dione]: the Dmax runs as follows: under setting [1], 49%; under setting [3], 49%. The DC50 is, setting by setting: under setting [2], 3.7 nM; under setting [4], 3.7 nM.

In turn, `CC(C)n1c(=O)n(C2CCC(=O)NC2=O)c2ccc(N3CCC(O[C@H]4CC[C@H](CN5CCN(c6cc(-c7n[nH]c8cnc(OC(C)(C)C)cc78)ncn6)CC5)CC4)CC3)cc21` (single isomer, unassigned) [Compound 58, rel-3-[2-oxo-3-(propan-2-yl)-5-(4-{[(1r,4r)-4-[(4-{6-[5-(tert-butoxy)-1H-pyrazolo[3,4-c]pyridin-3-yl]pyrimidin-4-yl}piperazin-1-yl)methyl]cyclohexyl]oxy}piperidin-1-yl)-2,3-dihydro-1H-1,3-benzodiazol-1-yl]piperidine-2,6-dione] showed a maximal degradation (Dmax) under setting [1] of 70%. Under setting [2], this compound came in with a DC50 of 33 nM.

In turn, `COc1ccc2[nH]nc(-c3cc(N4CCN(C[C@H]5CC[C@H](OC6CCN(c7ccc8c(c7)n(C)c(=O)n8C7CCC(=O)NC7=O)CC6)CC5)CC4)ncn3)c2c1` (single isomer, unassigned) [Compound 60, rel-3-[3-methyl-2-oxo-5-(4-{[(1r,4r)-4-({4-[6-(5-methoxy-1H-indazol-3-yl)pyrimidin-4-yl]piperazin-1-yl}methyl)cyclohexyl]oxy}piperidin-1-yl)-2,3-dihydro-1H-1,3-benzodiazol-1-yl]piperidine-2,6-dione] showed a maximal degradation (Dmax) under setting [1] of 38%. The compound also returned a DC50 under setting [2] of 0.67 nM.

On to `Cn1c(=O)n(C2CCC(=O)NC2=O)c2ccc(N3CCC(O[C@H]4CC[C@H](CN5CCN(c6cc(-c7n[nH]c8cnc(C9(C#N)CC%10(CC%10)C9)cc78)ncn6)CC5)CC4)CC3)cc21` (single isomer, unassigned) [Compound 24, rel-5-{3-[6-(4-{[(1r,4r)-4-({1-[1-(2,6-dioxopiperidin-3-yl)-3-methyl-2-oxo-2,3-dihydro-1H-1,3-benzodiazol-5-yl]piperidin-4-yl}oxy)cyclohexyl]methyl}piperazin-1-yl)pyrimidin-4-yl]-1H-pyrazolo[3,4-c]pyridin-5-yl}spiro[2.3]hexane-5-carbonitrile], for which the maximal degradation (Dmax) under setting [1] is 49%. In addition, under setting [2], the 50% degradation concentration (DC50) turned out to be 0.46 nM.

In the case of `COc1cc2c(-c3cc(N4CCN(C[C@H]5CC[C@H](OC6CCN(c7ccc8c(c7)n(C)c(=O)n8C7CCC(=O)NC7=O)CC6)CC5)CC4)ncn3)n[nH]c2cn1` (single isomer, unassigned) [Compound 21, rel-3-[3-methyl-2-oxo-5-(4-{[(1r,4r)-4-{[4-(6-{5-methoxy-1H-pyrazolo[3,4-c]pyridin-3-yl}pyrimidin-4-yl)piperazin-1-yl]methyl}cyclohexyl]oxy}piperidin-1-yl)-2,3-dihydro-1H-1,3-benzodiazol-1-yl]piperidine-2,6-dione], the half-maximal degradation concentration (DC50) under setting [2] is at least 1000 nM.

On to `Cn1c(=O)n(C2CCC(=O)NC2=O)c2cc(N3CCC(CN4CCN(CC5CCN(c6cc(-c7n[nH]c8ccc(OC9(C)CC9)cc78)ncn6)CC5)CC4)CC3)ccc21` (centres unmarked) [Compound 16, 3-{3-methyl-6-[4-({4-[(1-{6-[5-(1-methylcyclopropoxy)-1H-indazol-3-yl]pyrimidin-4-yl}piperidin-4-yl)methyl]piperazin-1-yl}methyl)piperidin-1-yl]-2-oxo-2,3-dihydro-1H-1,3-benzodiazol-1-yl}piperidine-2,6-dione], for which, under setting [2], the DC50 is at least 1000 nM.

Under setting [1], `CC(C)n1c(=O)n(C2CCC(=O)NC2=O)c2ccc(N3CCC(O[C@H]4CC[C@H](CN5CCN(c6cc(-c7n[nH]c8ccc(OC(C)(C)C)cc78)ncn6)CC5)CC4)CC3)cc21` (single isomer, unassigned) [Compound 56, rel-3-[2-oxo-3-(propan-2-yl)-5-(4-{[(1r,4r)-4-[(4-{6-[5-(tert-butoxy)-1H-indazol-3-yl]pyrimidin-4-yl}piperazin-1-yl)methyl]cyclohexyl]oxy}piperidin-1-yl)-2,3-dihydro-1H-1,3-benzodiazol-1-yl]piperidine-2,6-dione] yielded a maximal degradation (Dmax) of 43%. This compound also came in with a DC50 under setting [2] of 0.95 nM.

As to `CC1(Oc2ccc3[nH]nc(-c4cc(N5CCN(CC6CCC(OC7CCN(c8ccc9ncn(C%10CCC(=O)NC%10=O)c9c8)CC7)CC6)CC5)ncn4)c3c2)CC1` (centres unmarked) [Compound 4, 3-[6-(4-{[(1r,4r)-4-[(4-{6-[5-(1-methylcyclopropoxy)-1H-indazol-3-yl]pyrimidin-4-yl}piperazin-1-yl)methyl]cyclohexyl]oxy}piperidin-1-yl)-1H-1,3-benzodiazol-1-yl]piperidine-2,6-dione], under setting [2], it took 7.5 nM to reach half-maximal degradation (DC50). The “WT LRRK2 **Dmax (%)” value (Table 2, maximal degradation, HiBit-tagged LRRK2 in HEK293 cells, 24 hours treatment) came out at 62%.

Compound `CC1(Oc2ccc3[nH]nc(-c4cc(N5CCN(C[C@H]6CC[C@H](OC7CCN(c8cccc9c8ncn9C8CCC(=O)NC8=O)CC7)CC6)CC5)ncn4)c3c2)CC1` (some centres unmarked) [Compound 3, 3-[4-(4-{[(1r,4r)-4-[(4-{6-[5-(1-methylcyclopropoxy)-1H-indazol-3-yl]pyrimidin-4-yl}piperazin-1-yl)methyl]cyclohexyl]oxy}piperidin-1-yl)-1H-1,3-benzodiazol-1-yl]piperidine-2,6-dione] gave a Dmax under setting [1] of 30% and a Dmax under setting [3] of 30%. Also, the DC50 is, setting by setting: under setting [2], 28 nM; under setting [4], 28 nM.

`Cn1c(=O)n(C2CCC(=O)NC2=O)c2cccc(N3CCC(O[C@H]4CC[C@H](CN5CCN(c6cc(-c7n[nH]c8cnc(OC9(C)CC9)cc78)ncn6)CC5)CC4)CC3)c21` (single isomer, unassigned) [Compound 46, rel-3-[3-methyl-2-oxo-4-(4-{[(1r,4r)-4-[(4-{6-[5-(1-methylcyclopropoxy)-1H-pyrazolo[3,4-c]pyridin-3-yl]pyrimidin-4-yl}piperazin-1-yl)methyl]cyclohexyl]oxy}piperidin-1-yl)-2,3-dihydro-1H-1,3-benzodiazol-1-yl]piperidine-2,6-dione] registered a Dmax under setting [1] of 90%. Under setting [2], this compound gave a DC50 of 2.1 nM.

Regarding `Cn1c(=O)n(C2CCC(=O)NC2=O)c2ccc(N3CCC(O[C@H]4CC[C@H](CN5CCN(c6cc(-c7n[nH]c8ccc([C@]9(C#N)CC9%10CC%10)cc78)ncn6)CC5)CC4)CC3)cc21` (single isomer, unassigned) [Compound 66, (1R**)-1-{3-[6-(4-{[(1r*,4r*)-4-({1-[1-(2,6-dioxopiperidin-3-yl)-3-methyl-2-oxo-2,3-dihydro-1H-1,3-benzodiazol-5-yl]piperidin-4-yl}oxy)cyclohexyl]methyl}piperazin-1-yl)pyrimidin-4-yl]-1H-indazol-5-yl}spiro[2.2]pentane-1-carbonitrile], the maximal degradation (Dmax) under setting [1] stood at 61%. For the same compound, the half-maximal degradation concentration (DC50) under setting [2] was 0.14 nM.

Regarding `CC(C)n1c(=O)n(C2CCC(=O)NC2=O)c2ccc(N3CCC(O[C@H]4CC[C@H](CN5CCN(c6cc(-c7n[nH]c8cnc(OC9(C)CC9)cc78)ncn6)CC5)CC4)CC3)cc21` (single isomer, unassigned) [Compound 52, rel-3-[2-oxo-3-(propan-2-yl)-5-(4-{[(1r,4r)-4-[(4-{6-[5-(1-methylcyclopropoxy)-1H-pyrazolo[3,4-c]pyridin-3-yl]pyrimidin-4-yl}piperazin-1-yl)methyl]cyclohexyl]oxy}piperidin-1-yl)-2,3-dihydro-1H-1,3-benzodiazol-1-yl]piperidine-2,6-dione], under setting [1], the maximal degradation (Dmax) is 53%. In addition, half-maximal degradation under setting [2] (DC50) was put at 0.28 nM.
